Ends that are not written are not given here. FAM = 5(6)-carboxyfluorescein; Ahx = NCCCCCC(=O)O
Assays:
[1] = system: MRC1/CD206-expressing tumor-associated macrophages (MEMs) in 4T1 tumors; assay: Free peptide homing and immunofluorescence in the orthotopic 4T1 breast tumor model; details: 30 nmoles i.v.
Method: (SEQ ID NO: 5) control peptide were injected intravenously into 4T1 tumor-bearing mice and allowed to circulate for 2 h. Mice were then sacrificed and tumor and tissues were analyzed by immunofluorescence using rabbit anti-FAM (green) and rat anti-CD206 or rat anti-TIE2 (red) antibodies, and counterstained with DAPI. All images were taken under the same imaging conditions. FAM-UNO accumulated in macrophages within tumors and lymph nodes positive for CD206 staining (A, B, C) and TIE2 (D, and H: Blow up of D). […] To ascertain that anti-CD206 is capable of detecting CD206 in the liver, an image was acquired with longer exposure time from an uninjected animal (FIG. 25). […] Green: FAM-peptide; Red: CD206 or TIE2, Blue: DAPI. Representative fields from multiple sections prepared from at least 3 tumors (n≥3 mice) are shown.
Tumor models were induced according to protocols approved by the Estonian Ministry of Agriculture, Committee of Animal Experimentation (permit #48). For the 4T1 breast model, 8-week old female Balb/c mice were injected in the mammary fat pad with 10^6 cells dispersed in 50 μL of PBS. For homing studies, mice were used 10 days later, when the tumor had reached ˜150 mm^3. For MCF-7 breast model, 8-week old female nude mice were implanted with an estrogen pellet, and 1 week later inoculated with 5×10^6 MCF-7 cells in 100 μL of cold Matrigel (BD Biosciences, CA, USA). Mice were used for homing studies three weeks later (tumor volume˜150 mm^3). For the metastatic gastric carcinoma, 10^6 MKN45-P cells in PBS were injected intraperitoneally in 8-week old female nude mice. Mice were used for homing studies two weeks later. For the metastatic melanoma model, 2×10^5 B16F10 cells were injected intravenously in 100 μL of PBS in C57 BL6 mice. The mice were used for homing studies 10 days after. For the angiogenic glioblastoma model, WT-GBM 24, 7×10^5 cells were stereotactically injected in the right striatum of Fox/Nu mice 2 mm lateral and posterior of bregma of 2.5 mm deep. The mice were used for homing studies 6-7 days after the injection.
For free peptide homing studies, mice were injected intravenously with 30 nmoles of FAM-peptides in 100 μL of PBS. For nanoparticle homing studies-FAM-UNO—NP-PTX-, mice were injected intravenously in mice bearing MCF-7 breast tumors with 1 mg of Polymer in 100 μL pf PBS and allowed to circulate for 6 h. For tissue collection, the mice were anesthetized and the tissues collected and immediately placed in 4% cold PFA and left overnight at 4-C. Tissues were washed with PBS for 2 h at room temperature and cryoprotected with sucrose 15% at 4-C overnight and then in sucrose 30% at 4·C overnight. The tumor and the control organs were placed together in the same block with OCT compound (Leica Biosystems, Wetzlar, Germany), snap-frozen in isopentane, and sectioned at 10 μm. FAM was detected using Rabbit anti-FITC (Invitrogen, CA, USA. Catalog # A-889) at a dilution of 1/100 and using Alexa Fluor-546 anti-rabbit antibody (Invitrogen, Ca, USA. Catalog # A-11035) at a dilution of 1/200. CD31 was detected using rat anti-mouse CD31 (BD Biosciences, CA, USA. Catalog #: 553370), TIE2 was detected using rat anti-mouse TIE2 (Biolegend, CA, USA. Catalog #124001), CD209 was detected using rat anti-mouse CD209 (Biolegend, CA, USA. Catalog #147802), HLA ABC was detected using rat anti Human HLA ABC (Bio-Rad, CA, USA. Product code MCA485G), and CD206 was detected using ratanti-mouse CD206 (Bio-Rad, CA, USA. Product code MCA2235GA); using 1/100 primary antibody dilution and Alexa Fluor-647 anti-Rat antibody (Invitrogen, CA, USA. Catalog #21247) at 1/200 dilution. To quantify FAM signal from confocal images, the green channel of images taken by using 20× magnification objective was opened with ImageJ, converted to 8-bit grayscale and the integrated pixel intensity was measured. Different regions of tumors from three different mice were used.

[2] = system: intestinal tissue (CD209) and lymph nodes of healthy mice; assay: Free peptide homing in healthy Balb/C mice; assay type: in vivo, mouse; details: 30 nmoles i.v., 2 h
Method: A, Thirty nmoles of FAM-UNO were injected intravenously in healthy Balb/C mice. Peptide was allowed to circulate for 2 hours. Mice were then sacrificed and intestinal tissue was analyzed by immunofluorescence using rabbit anti-FAM (green) together with rat anti-CD209 (red) and counterstained with DAPI. B, Thirty nmoles of FAM-UNO were injected intravenously in mice bearing 4T1 tumors, 10 days after orthotopic inoculation of 10^6 Cells. Peptide was let to circulate for two hours, mice were then sacked and tumor and tissues analyzed by immunofluorescence using rabbit Anti-FAM (green) together with rat anti-CD209 (red) and counterstained with DAPI (Blue). Images in A and B were taken using the same imaging conditions. Scale bar: 50 μm (images in B are at the same scale as in A). Representative images from n=3 mice.
Thirty nmoles of FAM-UNO were injected intravenously in healthy Balb/C female mice. Peptide was allowed to circulate for 2 hours. Mice were then sacrificed, and inguinal lymph node and kidney analyzed by immunofluorescence using rabbit anti-FAM together with rat anti-CD206 (red, 2901) and counterstained with DAPI (blue). FAM-UNO is absent from the healthy inguinal lymph node (left panel), while some CD206 is observed (2901). In the kidney (right panel), the FAM fluorescence signal is detected throughout the tissue. Scale bars: 100 μm. Representative images from n=3 mice.

[3] = 4T1 tumor lysate, injected within 1 min
Method: High-performance liquid chromatography (Agilent 1200 series, USA)-mass spectrometry (SciexQ-Trap 4500, Canada) analysis was done using a C18 column (Kinetex 2.6 μm EVO C18 100×4.6 mm, Phenomenex, USA). Ionization was performed at 300° C. with declustering potential set 30 V. Chromatography gradient started with 2 min 5% acetonitrile in water, followed by linear increase to 95% acetonitrile in 10 min and finally 10 min isocratic flow of 95% acetonitrile in water. Both eluents, water and acetonitrile, contained 0.2% formic acid. Flow rate was 0.3 ml/min. Column temperature was maintained at 40° C. Autosampler temperature was set to 37° C. Retention times and m/z signals of FAM-UNO, were determined from 30 μM FAM-UNO solution in PBS. Tumor lysate was split into two aliquots of 200 μL in each. From one aliquot, 20 μL were injected and the LC-MS profile obtained. The second aliquot was mixed with 50 μL of 30 μM FAM-UNO in PBS and injected within 1 min to LC-MS and the LC-MS profile obtained.

Row | Substance | accumulation in MEMs / tumor homing ([1]; 2 h circulation) | time the signal remained readily detectable in MEMs after administration [1] | accumulation in liver, heart, lungs and spleen ([1]; 2 h) | internalization in MEMs (high resolution confocal microscopy) ([1]; 2 h) | overlap with CD209 in sections from 4T1 tumors ([1]; 2 h) | cells positive for FAM-UNO that were also positive for CD206, in tumors ([1]; 2 h circulation) [%] | FAM fluorescence in the kidneys ([1]; 2 h time point) | homing to lymph nodes of healthy mice [2] | recruitment to intestinal tissue (expresses CD209) of healthy mice [2] | fate of the disulfide bridge on incubation with tumor lysate [3]
1 | FAM-CSPGAK: FAM-labeled linear CSPGAK (SEQ ID NO: 6) (not fully specified; FAM label) | accumulated in MEMs in orthotopic 4T1 breast tumor-bearing mice at levels comparable to FAM-UNO | – | – | – | – | – | – | – | – | –
2 | FAM-UNO: FAM-labeled UNO peptide CSPGAKVRC (SEQ ID NO: 1); 5(6)-carboxyfluorescein with 6-aminohexanoic acid spacer at the N-terminus ({FAM-Ahx}-CSPGAKVRC; cysteine pairing not given here) | accumulated in MEMs in tumors and in sentinel lymph nodes | up to 12 h | low | internalized in MEMs | only a moderate overlap with CD209 | 96 | FAM-fluorescence was observed in the kidneys | did not home to the lymph nodes of healthy Balb/C mice | not recruited to intestinal tissue of healthy mice | the disulfide bridge was reduced to yield a linear peptide
